Results from patent US7855290B2, “Pyridine derivatives and pyrimidine derivatives (3)” (Eisai R&D Management Co., Ltd., priority 2005, dated 2010).

The compounds below were run against T1, HGFR (Homo sapiens, UniProt P08581) (assay: Inhibitory activity against the HGFR autophosphorylation using ELISA (MKN-45 cells)). Conditions: 1 hr with test substance.
T1 construct: endogenous in cells; host or cells: MKN-45 human gastric cancer cells
Format: cell-based
Summary of the method: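 MKN-45 gastric cancer cells, plated overnight in 1% FBS RPMI1640, treated with compound 1 h at 37° C and lysed. Lysate captured on anti-phosphotyrosine (PY20) plates, probed with anti-HGFR then HRP anti-rabbit IgG; TMB absorbance at 450 nm. Activity expressed as % of untreated extract (100%) versus lysis buffer blank (0%).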

T1 sequence (P08581 25-1390): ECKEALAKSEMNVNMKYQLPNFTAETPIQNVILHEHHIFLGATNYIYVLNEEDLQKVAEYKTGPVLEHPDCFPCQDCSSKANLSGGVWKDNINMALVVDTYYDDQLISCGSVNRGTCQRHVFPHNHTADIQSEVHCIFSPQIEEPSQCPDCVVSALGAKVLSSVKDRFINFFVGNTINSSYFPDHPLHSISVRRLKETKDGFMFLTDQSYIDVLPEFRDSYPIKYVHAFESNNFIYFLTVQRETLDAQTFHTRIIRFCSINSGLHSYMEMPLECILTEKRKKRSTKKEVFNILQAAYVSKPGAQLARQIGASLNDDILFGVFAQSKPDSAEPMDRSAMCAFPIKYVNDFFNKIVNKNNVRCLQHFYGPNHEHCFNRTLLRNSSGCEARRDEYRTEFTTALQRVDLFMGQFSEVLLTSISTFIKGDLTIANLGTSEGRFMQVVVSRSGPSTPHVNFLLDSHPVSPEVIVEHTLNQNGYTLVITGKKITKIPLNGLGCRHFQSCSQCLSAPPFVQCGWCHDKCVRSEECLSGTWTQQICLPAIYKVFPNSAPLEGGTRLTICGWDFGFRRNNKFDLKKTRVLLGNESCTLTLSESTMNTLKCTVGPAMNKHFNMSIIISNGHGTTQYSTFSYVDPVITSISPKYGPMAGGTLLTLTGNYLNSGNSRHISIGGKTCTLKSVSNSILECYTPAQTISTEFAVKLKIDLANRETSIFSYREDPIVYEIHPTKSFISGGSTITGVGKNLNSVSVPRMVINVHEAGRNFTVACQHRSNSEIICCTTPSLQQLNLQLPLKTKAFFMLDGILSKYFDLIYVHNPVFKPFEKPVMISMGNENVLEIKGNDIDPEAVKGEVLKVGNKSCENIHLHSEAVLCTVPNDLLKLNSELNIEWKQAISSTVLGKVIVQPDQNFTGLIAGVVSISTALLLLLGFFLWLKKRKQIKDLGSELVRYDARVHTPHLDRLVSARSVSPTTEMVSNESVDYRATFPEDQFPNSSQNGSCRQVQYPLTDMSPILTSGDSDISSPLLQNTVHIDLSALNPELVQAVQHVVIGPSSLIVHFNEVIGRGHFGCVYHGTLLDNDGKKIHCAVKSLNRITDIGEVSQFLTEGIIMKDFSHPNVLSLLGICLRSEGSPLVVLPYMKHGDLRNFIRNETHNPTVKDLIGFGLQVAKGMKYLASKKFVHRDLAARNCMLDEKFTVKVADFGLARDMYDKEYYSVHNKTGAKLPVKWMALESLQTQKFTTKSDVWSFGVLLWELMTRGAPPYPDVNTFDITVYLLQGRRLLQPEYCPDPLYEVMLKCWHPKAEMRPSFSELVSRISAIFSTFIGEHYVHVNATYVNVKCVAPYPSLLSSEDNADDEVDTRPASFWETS

Structure (SMILES)	IC50
O=C(Nc1cc(Oc2ccc(NC(=O)C3(C(=O)Nc4ccc(F)cc4)CC3)cc2)ccn1)N1CCC(CN2CCC2)CC1 [Example 27, N-(4-{[2-({f [4-(Azetidin-1-ylmethyl)piperidin-1-yl]carbonyl}amino)pyridin-4-yl]oxy}phenyl)-N′-(4-fluorophenyl)cyclopropane-1,1-dicarboxamide]	32 nM
CN(C)C1CCN(C(=O)Nc2cc(Oc3ccc(NC(=O)C4(C(=O)Nc5ccc(F)cc5)CC4)cc3F)ccn2)CC1 [Example 23, N-(4-{[2-({[4-(Dimethylamino)piperidin-1-yl]carbonyl}amino)pyridin-4-yl]oxy}-3-fluorophenyl)-N′-(4-fluorophenyl)cyclopropane-1,1-dicarboxamide]	17 nM
O=C(Nc1cc(Oc2ccc(NC(=O)C3(C(=O)Nc4ccc(F)cc4)CC3)cc2)ccn1)N1CCN(CCN2CCC2)CC1 [Example 28, N-(4-{[2-({[4-(2-Azetidin-1-ylethyl)piperazin-1-yl]carbonyl}amino)pyridin-4-yl]oxy}phenyl)-N′-(4-fluorophenyl)cyclopropane-1,1-dicarboxamide]	43 nM
O=C(Nc1cc(Oc2ccc(NC(=O)C3(C(=O)Nc4ccc(F)cc4)CC3)c(F)c2F)ccn1)N1CC(O)C1 [Example 106, N-[2,3-Difluoro-4-[(2-{[(3-hydroxyazetidin-1-yl)carbonyl]amino}pyridin-4-yl)oxy]phenyl}-N′-(4-fluorophenyl)cyclopropane-1,1-dicarboxamide]	39 nM
CCN1CCC(N(C)C(=O)Nc2cc(Oc3ccc(NC(=O)C4(C(=O)Nc5ccccc5)CC4)c(F)c3)ccn2)CC1 [Example 60, N-(4-{[2-({[(1-Ethylpiperidin-4-yl)(methyl)amino]carbonyl}amino)pyridin-4-yl]oxy}-2-fluorophenyl)-N′-phenylcyclopropane-1′-dicarboxamide]	8 nM
O=C(Nc1cc(Oc2cc(F)c(NC(=O)C3(C(=O)Nc4ccc(F)cc4)CC3)cc2F)ccn1)N1CCC(O)CC1 [Example 105]	8.6 nM
CCN(CC)CCCNC(=O)Nc1cc(Oc2ccc(NC(=O)C3(C(=O)Nc4ccc(F)cc4)CC3)cc2C)ccn1 [Example 45, N-[4-({2-[({[3-(Diethylamino)propyl]amino}carbonyl)amino]pyridin-4-yl}oxy)-3-methylphenyl]-N′-(4-fluorophenyl)cyclopropane-1,1-dicarboxamide]	440 nM
O=C(Nc1cc(Oc2ccc(NC(=O)C3(C(=O)Nc4ccc(F)cc4)CC3)cc2F)ccn1)N1CC(O)C1 [Example 80, N-{3-Fluoro-4-[(2-{[(3-hydroxyazetidin-1-yl)carbonyl]amino}pyridin-4-yl)oxy]phenyl}-N′-(4-fluorophenyl)cyclopropane-1,1-dicarboxamide]	14 nM
O=C(Nc1cc(Oc2ccc(NC(=O)C3(C(=O)Nc4ccc(F)cc4)CC3)cc2)ccn1)N1CCOCC1 [Example 68, N-(4-Fluorophenyl)-N′-[4-({2-[(morpholin-4-ylcarbonyl)amino]pyridin-4-yl}oxy)phenyl]cyclopropane-1,1-dicarboxamide]	71 nM
CN(C)C1CN(C2CCN(C(=O)Nc3cc(Oc4ccc(NC(=O)C5(C(=O)Nc6ccc(F)cc6)CC5)c(F)c4)ccn3)CC2)C1 [Example 14, N-[4-({2-[({4-[3-(Dimethylamino)azetidin-1-yl]piperidin-1-yl}carbonyl)amino]pyridin-4-yl}oxy)-2-fluorophenyl]-N′-(4-fluorophenyl)cyclopropane-1,1-dicarboxamide]	19 nM
CN(C)CC1CCN(C(=O)Nc2cc(Oc3ccc(NC(=O)C4(C(=O)Nc5ccc(F)cc5)CC4)c(F)c3)ccn2)CC1 [Example 8, N-[4-({2-[({4-[(Dimethylamino)methyl]piperidin-1-yl}carbonyl)amino]pyridin-4-yl}oxy)-2-fluorophenyl]-N′-(4-fluorophenyl)cyclopropane-1,1-dicarboxamide]	14 nM
O=C(Nc1cc(Oc2ccc(NC(=O)C3(C(=O)Nc4ccc(F)cc4)CC3)c(F)c2)ccn1)N1CCC(CN2CCCC2)CC1 [Example 40, N-(4-Fluorophenyl)-N′-(2-fluoro-4-{[2-({[4-(pyrrolidin-1-ylmethyl)piperidin-1-yl]carbonyl}amino)pyridin-4-yl]oxy}phenyl)cyclopropane-1,1-dicarboxamide]	8 nM
CN1CC(N2CCN(C(=O)Nc3cc(Oc4ccc(NC(=O)C5(C(=O)Nc6ccc(F)cc6)CC5)cc4F)ccn3)CC2)C1 [Example 22, N-(3-Fluoro-4-{[2-({[4-(1-methylazetidin-3-yl)piperazin-1-yl]carbonyl}amino)pyridin-4-yl]oxy}phenyl)-N′-(4-fluorophenyl)cyclopropane-1,1-dicarboxamide]	21 nM
CN(C)CCN1CCN(C(=O)Nc2cc(Oc3ccc(NC(=O)C4(C(=O)Nc5ccc(F)cc5)CC4)c(F)c3)ccn2)CC1 [Example 2, N-[4-({2-[({4-[2-(Dimethylamino)ethyl]piperazin-1-yl}carbonyl)amino]pyridin-4-yl}oxy)-2-fluorophenyl]-N′-(4-fluorophenyl)cyclopropane-1,1-dicarboxamide]	21 nM
COC1CN(C(=O)Nc2cc(Oc3ccc(NC(=O)C4(C(=O)Nc5ccc(F)cc5)CC4)c(F)c3)ccn2)C1 [Example 78, N-[2-Fluoro-4-[(2-{[(3-methoxyazetidin-1-yl)carbonyl]amino}pyridin-4-yl)oxy]phenyl}-N′-(4-fluorophenyl)cyclopropane-1,1-dicarboxamide]	15 nM

The remaining compounds from weak to strong by IC50, led by results:

IC50	Structure (SMILES)
40 nM	CN1CCC(N(C)C(=O)Nc2cc(Oc3ccc(NC(=O)C4(C(=O)Nc5ccc(F)cc5)CC4)cc3)ccn2)CC1 [Example 12]
37 nM	O=C(Nc1cc(Oc2ccc(NC(=O)C3(C(=O)Nc4ccc(F)cc4)CC3)cc2)ccn1)N1CCC(N2CCC2)CC1 [Example 13, N-{4-[(2-{[(4-Azetidin-1-ylpiperidin-1-yl)carbonyl]amino}pyridin-4-yl)oxy]phenyl}-N′-(4-fluorophenyl)cyclopropane-1,1-dicarboxamide]
30 nM	CN(C)[C@@H]1CCN(C(=O)Nc2cc(Oc3ccc(NC(=O)C4(C(=O)Nc5ccc(F)cc5)CC4)c(F)c3)ccn2)C1 [Example 47, N-(4-{[2-({[(3R)-3-(Dimethylamino)pyrrolidin-1-yl]carbonyl}amino)pyridin-4-yl]oxy}-2-fluorophenyl)-N′-(4-fluorophenyl)cyclopropane-1,1-dicarboxamide]
30 nM	O=C(Nc1cc(Oc2ccc(NC(=O)C3(C(=O)Nc4ccc(F)cc4)CC3)cc2)ccn1)N1CCC(CN2CCCC2)CC1 [Example 29, N-(4-Fluorophenyl)-N′-(4-{[2-({[4-(pyrrolidin-1-ylmethyl)piperidin-1-yl]-carbonyl}amino)pyridin-4-yl]oxy}phenyl)cyclopropane-1,1-dicarboxamide]
23 nM	CN1CCC(N2CCN(C(=O)Nc3cc(Oc4ccc(NC(=O)C5(C(=O)Nc6ccc(F)cc6)CC5)cc4F)ccn3)CC2)CC1 [Example 19, N-(3-Fluoro-4-{[2-({[4-(1-methylpiperidin-4-yl)piperazin-1-yl]carbonyl}amino)pyridin-4-yl]oxy}phenyl)-N′-(4-fluorophenyl)cyclopropane-1,1-dicarboxamide]
21 nM	O=C(Nc1cc(Oc2ccc(NC(=O)C3(C(=O)Nc4ccc(F)cc4)CC3)c(F)c2)ccn1)N1CCOCC1 [Example 63, N-[2-Fluoro-4-({2-[(morpholin-4-ylcarbonyl)amino]pyridin-4-yl}oxy)phenyl]-N′-(4-fluorophenyl)cyclopropane-1,1-dicarboxamide]
19 nM	CN(C)[C@H]1CCN(C(=O)Nc2cc(Oc3ccc(NC(=O)C4(C(=O)Nc5ccc(F)cc5)CC4)c(F)c3)ccn2)C1 [Example 46, N-(4-{[2-({[(3S)-3-(Dimethylamino)pyrrolidin-1-yl]carbonyl}amino)pyridin-4-yl]oxy}-2-fluorophenyl)-N′-(4-fluorophenyl)cyclopropane-1,1-dicarboxamide]
19 nM	CN1CCC(N(C)C(=O)Nc2cc(Oc3ccc(NC(=O)C4(C(=O)Nc5ccc(F)cc5)CC4)c(F)c3)ccn2)CC1 [Example 3, N-(2-Fluoro-4-{[2-({[methyl(1-methylpiperidin-4-yl)amino]carbonyl}amino)pyridin-4-yl]oxy}phenyl)-N′-(4-fluorophenyl)cyclopropane-1,1-dicarboxamide]
15 nM	CN(C)[C@@H]1CCN(C(=O)Nc2cc(Oc3ccc(NC(=O)C4(C(=O)Nc5ccc(F)cc5)CC4)cc3F)ccn2)C1 [Example 36, N-(4-{[2-({[(3R)-3-(Dimethylamino)pyrrolidin-1-yl]carbonyl}amino)pyridin-4-yl]oxy}-3-fluorophenyl)-N′-(4-fluorophenyl)cyclopropane-1,1-dicarboxamide]
15 nM	CN1CCN(C(=O)Nc2cc(Oc3cc(F)c(NC(=O)C4(C(=O)Nc5ccc(F)cc5)CC4)cc3F)ccn2)CC1 [Example 104, N-{2,5-Difluoro-4-[(2-{[(4-methylpiperazin-1-yl)carbonyl]amino}pyridin-4-yl]oxy}phenyl)-N′-(4-fluorophenyl)cyclopropane-1,1-dicarboxamide]
11 nM	CN(C)C1CN(C2CCN(C(=O)Nc3cc(Oc4ccc(NC(=O)C5(C(=O)Nc6ccc(F)cc6)CC5)cc4F)ccn3)CC2)C1 [Example 21, N-[4-({2-[({4-[3-(Dimethylamino)azetidin-1-yl]piperidin-1-yl}carbonyl)amino]pyridin-4-yl}oxy)-3-fluorophenyl]-N′-(4-fluorophenyl)cyclopropane-1,1-dicarboxamide]
10 nM	O=C(Nc1cc(Oc2ccc(NC(=O)C3(C(=O)Nc4ccc(F)cc4)CC3)cc2F)ccn1)N1CCC1 [Example 65, N-[4-({2-[(Azetidin-1-ylcarbonyl)amino]pyridin-4-yl}oxy)-3-fluorophenyl]-N′-(4-fluorophenyl)cyclopropane-1,1-dicarboxamide]
9.4 nM	CN1CCC(N(C)C(=O)Nc2cc(Oc3cc(F)c(NC(=O)C4(C(=O)Nc5ccc(F)cc5)CC4)cc3F)ncn2)CC1 [Example 100, N-(2,5-Difluoro-4-{[4-({[methyl(1-methylpiperidin-4-yl)amino]carbonyl}amino)pyrimidin-6-yl]oxy}phenyl)-N′-(4-fluorophenyl)cyclopropane-1,1-dicarboxamide]
